Conditions: Liquid, Transpiration method

C=CCc1ccc(OC)cc1 [1-allyl-4-methoxybenzene]
Conditions | vapor or sublimation pressure [kPa]
279.1 K | 0.00378
284.1 K | 0.00583
288.9 K | 0.00912
293.8 K | 0.01395
298.8 K | 0.02153
303.7 K | 0.03168
308.8 K | 0.04509
313.7 K | 0.06571
318.2 K | 0.09199
323.2 K | 0.1278

C=CCc1ccc(O)c(OC)c1 [2-hydroxy-5-allylanisole]
Conditions | vapor or sublimation pressure [kPa]
281.1 K | 0.0003
283.7 K | 0.00039
289 K | 0.00066
293.9 K | 0.00111
298.9 K | 0.00179
303.7 K | 0.00287
308.7 K | 0.00447
313.7 K | 0.00709
318.9 K | 0.01038
323.6 K | 0.01507
328.6 K | 0.02241
333.6 K | 0.03329
338.5 K | 0.04891
343.5 K | 0.06869

C/C=C/c1ccc(O)c(OC)c1 [2-methoxy-4-(1E)-1-propen-1-yl-phenol]
Conditions | vapor or sublimation pressure [kPa]
313.2 K | 0.00241
315.2 K | 0.00289
316.2 K | 0.00313
318.2 K | 0.00371
320.3 K | 0.00449
323.2 K | 0.00561
325.2 K | 0.00657
328.1 K | 0.00838
330.2 K | 0.00975
333.2 K | 0.01216
336.3 K | 0.01528
338.2 K | 0.01783
340.2 K | 0.02046
343.2 K | 0.02507
345.1 K | 0.02835
348.2 K | 0.03558
350.1 K | 0.04019
353.1 K | 0.05109
356.1 K | 0.06297
358.1 K | 0.07097

C/C=C/c1ccc(OC)cc1 [(E)-1-(4-methoxyphenyl)propene]
Conditions | vapor or sublimation pressure [kPa]
296.5 K | 0.00567
300.4 K | 0.00774
304.4 K | 0.0112
308.4 K | 0.01507
312.3 K | 0.02056
313.2 K | 0.02178
316.4 K | 0.02753
318.5 K | 0.03262
321.4 K | 0.04178
323.4 K | 0.04533
326.4 K | 0.05539
328.4 K | 0.06574
331.5 K | 0.08089
333.4 K | 0.09361

— the NIST ThermoML archive (doi:10.1016/j.fluid.2019.03.004)
